Experimental data: ChEMBL document CHEMBL5678816, “A Next-Generation TRK Kinase Inhibitor Overcomes Acquired Resistance to Prior TRK Kinase Inhibition in Patients with TRK Fusion-Positive Solid Tumors” (Cancer Discov, 2017)
Activity calls are given as the source filed them. The calls are words filed in the database; no cut-off is given here.

Columns and labels:
AN3-CA = experiment: Inhibition of cell proliferation in human AN3-CA cells upto 10 umol/L incubated for 72 hrs by DAPI staining based analysis; assay type: functional; settings: dose <= 10.0 µmol/L
[1] = biological target: Muscle, skeletal receptor tyrosine-protein kinase (Homo sapiens) (UniProt O15146); experiment: Inhibition of MUSK (unknown origin) at 1 uM in presence of ATP relative to control; values are per cent of control
[2] = biological target: Testis-specific serine/threonine-protein kinase 1 (Homo sapiens) (UniProt Q9BXA7); experiment: Inhibition of TSSK1 (unknown origin) at 1 uM in presence of ATP relative to control; values are per cent of control
[3] = Clearance in mouse at 1 mg/kg, iv administered as 20% hydroxypropyl-beta-cyclodextrin formulation by LC-MS analysis; assay type: ADME, organism-based; settings: in vivo
[4] = biological target: NUAK family SNF1-like kinase 1 (Homo sapiens) (UniProt O60285); experiment: Inhibition of ARK5 (unknown origin) at 1 uM in presence of ATP relative to control; values are per cent of control
[5] = biological target: Cyclin-dependent kinase 5/CDK5 activator 1 (Homo sapiens) (UniProt Q00535+Q15078); experiment: Inhibition of CDK5/p35 (unknown origin) at 1 uM in presence of ATP relative to control; values are per cent of control
SK-LMS-1 = experiment: Inhibition of cell proliferation in human SK-LMS-1 cells upto 10 umol/L incubated for 72 hrs by DAPI staining based analysis; assay type: functional; settings: dose <= 10.0 µmol/L
[6] = biological target: Homeodomain-interacting protein kinase 2 (Homo sapiens) (UniProt Q9H2X6); experiment: Inhibition of HIPK2 (unknown origin) at 1 uM in presence of ATP relative to control; values are per cent of control
[7] = biological target: Fibroblast growth factor receptor 1 (Homo sapiens) (UniProt P11362); experiment: Inhibition of FGFR1 (unknown origin) at 1 uM in presence of ATP relative to control; values are per cent of control
D283 Med = experiment: Inhibition of cell proliferation in human D283 Med cells upto 10 umol/L incubated for 72 hrs by DAPI staining based analysis; assay type: functional; settings: dose <= 10.0 µmol/L
[8] = biological target: RAC-alpha serine/threonine-protein kinase (Homo sapiens) (UniProt P31749); experiment: Inhibition of AKT1 (unknown origin) at 1 uM in presence of ATP relative to control; values are per cent of control
[9] = biological target: G protein-coupled receptor kinase 5 (Homo sapiens) (UniProt P34947); experiment: Inhibition of GRK5 (unknown origin) at 1 uM in presence of ATP relative to control; values are per cent of control
[10] = biological target: Discoidin domain-containing receptor 2 (Homo sapiens) (UniProt Q16832); experiment: Inhibition of DDR2 (unknown origin) at 1 uM in presence of ATP relative to control; values are per cent of control
NCI-H520 = experiment: Inhibition of cell proliferation in human NCI-H520 cells upto 10 umol/L incubated for 72 hrs by DAPI staining based analysis; assay type: functional; settings: dose <= 10.0 µmol/L
[11] = biological target: Serine/threonine-protein kinase PAK 4 (Homo sapiens) (UniProt O96013); experiment: Inhibition of PAK4 (unknown origin) at 1 uM in presence of ATP relative to control; values are per cent of control
[12] = biological target: Tyrosine-protein kinase BTK (Homo sapiens) (UniProt Q06187); experiment: Inhibition of BTK (unknown origin) at 1 uM in presence of ATP relative to control; values are per cent of control
[13] = biological target: Insulin-like growth factor 1 receptor (Homo sapiens) (UniProt P08069); experiment: Inhibition of IGF-1R (unknown origin) at 1 uM in presence of ATP relative to control; values are per cent of control
SK-MEL-28 = experiment: Inhibition of cell proliferation in human SK-MEL-28 cells upto 10 umol/L incubated for 72 hrs by DAPI staining based analysis; assay type: functional; settings: dose <= 10.0 µmol/L
[14] = biological target: Tyrosine-protein kinase ZAP-70 (Homo sapiens) (UniProt P43403); experiment: Inhibition of ZAP-70 (unknown origin) at 1 uM in presence of ATP relative to control; values are per cent of control
[15] = Clearance in dog at 1 mg/kg, iv administered as 20% hydroxypropyl-beta-cyclodextrin formulation by LC-MS analysis; assay type: ADME, organism-based, Canis lupus familiaris; settings: in vivo
[16] = biological target: Receptor tyrosine-protein kinase erbB-4 (Homo sapiens) (UniProt Q15303); experiment: Inhibition of ErbB4 (unknown origin) at 1 uM in presence of ATP relative to control; values are per cent of control
[17] = biological target: Proto-oncogene tyrosine-protein kinase receptor Ret (Homo sapiens) (UniProt P07949); experiment: Inhibition of Ret (unknown origin) at 1 uM in presence of ATP relative to control; values are per cent of control
Homo sapiens = species: Homo sapiens; experiment: Inhibition of CDK2/cyclinA (unknown origin) at 1 uM in presence of ATP relative to control; values are per cent of control
[18] = Oral bioavailability in rat at 10 mg/kg administered as 1% carboxymethylcellulose 0.5% Tween 80 formulation by LC-MS analysis; assay type: ADME, organism-based; settings: in vivo
[19] = Clearance in rat at 1 mg/kg, iv administered as 20% hydroxypropyl-beta-cyclodextrin formulation by LC-MS analysis; assay type: ADME, organism-based; settings: in vivo
[20] = biological target: Tyrosine-protein kinase ABL2 (Homo sapiens) (UniProt P42684); experiment: Inhibition of Abl2 (unknown origin) at 1 uM in presence of ATP relative to control; values are per cent of control
NIH3T3 = experiment: In vivo inhibition of […] in nu/nu NCr mouse implanted with mouse NIH3T3 cells harboring extracellular domain deleted […] G595R mutant assessed as reduction in […] phosphorylation administered orally twice daily for 3 days and measured after 2 hrs post last dose by ELISA; assay type: functional; settings: dose 10-100 mg/kg, route po, time 3.0 day
[21] = biological target: Protein kinase C iota type (Homo sapiens) (UniProt P41743); experiment: Inhibition of PKCiota (unknown origin) at 1 uM in presence of ATP relative to control; values are per cent of control
[22] = biological target: SRSF protein kinase 3 (Homo sapiens) (UniProt Q9UPE1); experiment: Inhibition of MSSK1 (unknown origin) at 1 uM in presence of ATP relative to control; values are per cent of control
K562 = experiment: Inhibition of cell proliferation in human K562 cells upto 10 umol/L incubated for 72 hrs by DAPI staining based analysis; assay type: functional; settings: dose <= 10.0 µmol/L

Sequence of Tyrosine-protein kinase BTK (Homo sapiens) (Q06187 whole entry): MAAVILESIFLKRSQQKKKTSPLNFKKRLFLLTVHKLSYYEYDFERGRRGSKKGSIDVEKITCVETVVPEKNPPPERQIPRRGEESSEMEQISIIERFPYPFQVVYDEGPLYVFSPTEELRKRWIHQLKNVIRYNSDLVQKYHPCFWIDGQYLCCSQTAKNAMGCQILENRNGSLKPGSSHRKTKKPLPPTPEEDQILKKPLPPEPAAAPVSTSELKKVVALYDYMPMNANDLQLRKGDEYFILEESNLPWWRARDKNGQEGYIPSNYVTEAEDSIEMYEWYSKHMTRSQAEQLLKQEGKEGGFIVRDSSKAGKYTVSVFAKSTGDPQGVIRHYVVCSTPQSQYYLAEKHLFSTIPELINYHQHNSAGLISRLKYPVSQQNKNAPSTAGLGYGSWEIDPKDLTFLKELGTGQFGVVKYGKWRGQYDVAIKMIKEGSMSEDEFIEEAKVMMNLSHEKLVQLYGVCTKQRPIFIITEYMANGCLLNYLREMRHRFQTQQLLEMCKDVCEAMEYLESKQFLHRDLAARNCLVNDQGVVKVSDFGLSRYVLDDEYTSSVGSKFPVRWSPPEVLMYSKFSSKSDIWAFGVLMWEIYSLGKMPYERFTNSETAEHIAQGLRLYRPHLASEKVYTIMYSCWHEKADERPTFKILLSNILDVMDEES
Sequence of Fibroblast growth factor receptor 1 (Homo sapiens) (P11362 22-822 limits assumed): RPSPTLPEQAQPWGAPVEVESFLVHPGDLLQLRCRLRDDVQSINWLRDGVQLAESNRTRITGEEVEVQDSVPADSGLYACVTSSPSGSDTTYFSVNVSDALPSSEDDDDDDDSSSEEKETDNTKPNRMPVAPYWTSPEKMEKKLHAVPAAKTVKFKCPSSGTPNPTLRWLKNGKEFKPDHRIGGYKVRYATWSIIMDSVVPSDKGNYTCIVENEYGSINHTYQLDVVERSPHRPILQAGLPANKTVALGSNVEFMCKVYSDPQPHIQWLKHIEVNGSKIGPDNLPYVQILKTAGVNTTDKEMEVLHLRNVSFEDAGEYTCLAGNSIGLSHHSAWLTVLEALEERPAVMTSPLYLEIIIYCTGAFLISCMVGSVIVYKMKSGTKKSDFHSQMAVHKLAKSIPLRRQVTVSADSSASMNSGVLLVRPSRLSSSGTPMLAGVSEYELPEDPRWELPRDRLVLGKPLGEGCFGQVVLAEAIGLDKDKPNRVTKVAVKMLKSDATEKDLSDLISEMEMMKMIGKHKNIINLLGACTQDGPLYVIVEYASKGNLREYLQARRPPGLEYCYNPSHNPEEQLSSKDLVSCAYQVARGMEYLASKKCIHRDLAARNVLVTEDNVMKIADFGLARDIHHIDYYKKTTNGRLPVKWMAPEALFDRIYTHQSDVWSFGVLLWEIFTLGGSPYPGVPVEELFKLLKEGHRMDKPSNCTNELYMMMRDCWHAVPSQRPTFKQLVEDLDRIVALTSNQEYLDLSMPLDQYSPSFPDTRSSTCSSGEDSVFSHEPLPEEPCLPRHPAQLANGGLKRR
Sequence of Tyrosine-protein kinase ZAP-70 (Homo sapiens) (P43403 whole entry): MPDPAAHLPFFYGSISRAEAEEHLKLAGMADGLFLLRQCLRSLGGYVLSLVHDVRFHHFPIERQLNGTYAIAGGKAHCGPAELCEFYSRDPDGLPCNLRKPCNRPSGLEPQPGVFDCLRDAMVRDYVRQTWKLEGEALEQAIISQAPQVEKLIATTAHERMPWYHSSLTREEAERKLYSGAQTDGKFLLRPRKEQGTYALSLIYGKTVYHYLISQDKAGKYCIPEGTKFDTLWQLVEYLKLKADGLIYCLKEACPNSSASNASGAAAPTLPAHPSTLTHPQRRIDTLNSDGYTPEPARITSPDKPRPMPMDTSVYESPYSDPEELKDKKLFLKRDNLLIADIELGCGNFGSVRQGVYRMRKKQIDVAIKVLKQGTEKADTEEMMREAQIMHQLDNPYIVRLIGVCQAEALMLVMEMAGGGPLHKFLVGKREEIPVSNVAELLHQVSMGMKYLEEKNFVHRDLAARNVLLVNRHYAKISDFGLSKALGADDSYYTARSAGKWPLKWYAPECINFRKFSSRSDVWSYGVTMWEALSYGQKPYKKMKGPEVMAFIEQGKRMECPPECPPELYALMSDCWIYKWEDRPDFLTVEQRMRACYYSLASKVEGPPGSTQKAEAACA
Sequence of Discoidin domain-containing receptor 2 (Homo sapiens) (Q16832 whole entry, the tested form may be a part): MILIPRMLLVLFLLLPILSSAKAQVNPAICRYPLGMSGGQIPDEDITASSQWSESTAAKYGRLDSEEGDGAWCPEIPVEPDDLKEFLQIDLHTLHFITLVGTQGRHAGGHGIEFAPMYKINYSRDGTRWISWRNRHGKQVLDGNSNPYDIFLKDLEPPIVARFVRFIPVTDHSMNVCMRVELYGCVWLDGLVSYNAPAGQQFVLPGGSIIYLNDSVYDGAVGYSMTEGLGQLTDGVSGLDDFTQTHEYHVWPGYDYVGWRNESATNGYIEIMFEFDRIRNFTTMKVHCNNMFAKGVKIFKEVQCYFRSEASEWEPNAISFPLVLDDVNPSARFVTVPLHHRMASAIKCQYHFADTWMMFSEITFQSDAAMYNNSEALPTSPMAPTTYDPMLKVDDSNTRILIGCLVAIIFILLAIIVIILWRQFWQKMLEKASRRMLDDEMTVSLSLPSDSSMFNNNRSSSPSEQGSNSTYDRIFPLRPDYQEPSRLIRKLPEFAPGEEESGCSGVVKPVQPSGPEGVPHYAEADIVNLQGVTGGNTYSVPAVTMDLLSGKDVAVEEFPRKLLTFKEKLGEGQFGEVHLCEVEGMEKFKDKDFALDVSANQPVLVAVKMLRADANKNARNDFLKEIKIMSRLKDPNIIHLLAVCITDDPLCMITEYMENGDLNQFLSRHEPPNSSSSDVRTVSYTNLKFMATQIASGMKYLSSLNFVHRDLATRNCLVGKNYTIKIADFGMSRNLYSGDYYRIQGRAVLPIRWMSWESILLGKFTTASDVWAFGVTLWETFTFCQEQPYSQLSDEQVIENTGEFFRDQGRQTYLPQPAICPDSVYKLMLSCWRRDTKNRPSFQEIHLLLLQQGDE
Sequence of Cyclin-dependent kinase 5/CDK5 activator 1 (Homo sapiens) (Q00535 whole entry): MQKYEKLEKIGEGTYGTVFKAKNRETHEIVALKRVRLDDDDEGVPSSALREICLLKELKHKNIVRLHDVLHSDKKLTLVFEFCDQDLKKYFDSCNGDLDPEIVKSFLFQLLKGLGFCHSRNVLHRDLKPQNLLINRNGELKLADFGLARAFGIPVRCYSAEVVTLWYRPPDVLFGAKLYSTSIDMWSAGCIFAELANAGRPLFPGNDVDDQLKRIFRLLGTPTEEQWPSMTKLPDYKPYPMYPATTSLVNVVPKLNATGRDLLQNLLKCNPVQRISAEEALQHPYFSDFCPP
Sequence of Cyclin-dependent kinase 5/CDK5 activator 1 (Homo sapiens) (Q15078 99-307 partner limits assumed): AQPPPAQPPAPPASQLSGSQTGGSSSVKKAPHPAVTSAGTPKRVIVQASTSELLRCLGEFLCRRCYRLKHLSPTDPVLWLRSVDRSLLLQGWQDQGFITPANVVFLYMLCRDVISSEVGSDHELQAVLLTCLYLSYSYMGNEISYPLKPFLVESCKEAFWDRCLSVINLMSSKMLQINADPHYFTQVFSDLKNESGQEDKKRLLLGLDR
Sequence of Homeodomain-interacting protein kinase 2 (Homo sapiens) (Q9H2X6 whole entry, looked up): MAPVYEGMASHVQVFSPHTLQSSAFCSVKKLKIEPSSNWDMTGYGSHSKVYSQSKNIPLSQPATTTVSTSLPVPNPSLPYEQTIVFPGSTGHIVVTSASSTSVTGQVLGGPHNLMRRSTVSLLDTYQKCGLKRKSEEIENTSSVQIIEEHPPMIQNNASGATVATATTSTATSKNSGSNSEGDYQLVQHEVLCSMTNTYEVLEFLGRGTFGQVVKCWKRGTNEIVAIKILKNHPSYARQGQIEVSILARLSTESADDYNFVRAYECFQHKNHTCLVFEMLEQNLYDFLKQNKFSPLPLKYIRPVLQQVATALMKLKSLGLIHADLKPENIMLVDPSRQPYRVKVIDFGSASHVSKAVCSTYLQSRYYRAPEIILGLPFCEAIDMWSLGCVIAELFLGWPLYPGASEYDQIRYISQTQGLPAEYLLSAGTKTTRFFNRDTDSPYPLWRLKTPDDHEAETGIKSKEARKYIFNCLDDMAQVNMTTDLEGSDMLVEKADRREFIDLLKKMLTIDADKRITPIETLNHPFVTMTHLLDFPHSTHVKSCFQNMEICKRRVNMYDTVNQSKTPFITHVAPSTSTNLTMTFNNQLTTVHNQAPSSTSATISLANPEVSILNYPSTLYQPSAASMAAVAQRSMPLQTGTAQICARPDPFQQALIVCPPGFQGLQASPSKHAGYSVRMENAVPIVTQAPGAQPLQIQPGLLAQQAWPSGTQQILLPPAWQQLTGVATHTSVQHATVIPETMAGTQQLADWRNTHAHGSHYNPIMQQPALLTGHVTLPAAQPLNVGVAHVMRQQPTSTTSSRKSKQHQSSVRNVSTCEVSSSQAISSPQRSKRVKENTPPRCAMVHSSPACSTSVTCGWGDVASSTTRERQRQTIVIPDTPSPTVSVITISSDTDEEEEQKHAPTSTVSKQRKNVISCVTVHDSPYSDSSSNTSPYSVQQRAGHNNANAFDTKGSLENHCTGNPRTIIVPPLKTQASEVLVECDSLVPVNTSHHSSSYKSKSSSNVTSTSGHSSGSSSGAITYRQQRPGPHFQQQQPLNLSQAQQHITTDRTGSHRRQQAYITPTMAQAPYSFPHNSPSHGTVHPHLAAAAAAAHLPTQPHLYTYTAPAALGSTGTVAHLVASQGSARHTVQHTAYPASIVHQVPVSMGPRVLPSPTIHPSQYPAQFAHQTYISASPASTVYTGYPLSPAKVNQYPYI
Sequence of Testis-specific serine/threonine-protein kinase 1 (Homo sapiens) (Q9BXA7 whole entry): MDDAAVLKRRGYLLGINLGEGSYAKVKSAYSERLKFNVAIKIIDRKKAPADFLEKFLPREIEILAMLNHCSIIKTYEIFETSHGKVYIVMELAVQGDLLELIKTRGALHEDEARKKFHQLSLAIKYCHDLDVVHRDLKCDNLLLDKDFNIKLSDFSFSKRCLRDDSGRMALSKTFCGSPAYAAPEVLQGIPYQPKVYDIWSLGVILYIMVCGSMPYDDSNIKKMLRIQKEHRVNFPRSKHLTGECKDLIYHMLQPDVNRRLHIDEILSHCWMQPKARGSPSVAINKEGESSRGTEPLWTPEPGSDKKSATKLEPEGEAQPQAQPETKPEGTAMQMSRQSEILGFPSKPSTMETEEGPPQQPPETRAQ

C[C@@H]1CCc2ncc(F)cc2[C@H]2CCCN2c2ccn3ncc(c3n2)C(=O)N1 [SELITRECTINIB]
inhibition (AN3-CA): inactive
residual activity [1]: 89.5%
residual activity [2]: 99%
clearance [3]: 4.83 mL/min/kg
residual activity [4]: 98%
residual activity [5]: 110%
inhibition (SK-LMS-1): inactive
residual activity [6]: 113%
residual activity [7]: 91.5%
inhibition (D283 Med): inactive
residual activity [8]: 120%
residual activity [9]: 110%
residual activity [10]: 93%
inhibition (NCI-H520): inactive
residual activity [11]: 101%
residual activity [12]: 87%
residual activity [13]: 96%
inhibition (SK-MEL-28): inactive
residual activity [14]: 118%
clearance [15]: 12.8 mL/min/kg
residual activity [16]: 116%
residual activity [17]: 80.5%
residual activity (Homo sapiens): 109%
bioavailability [18]: 24%
clearance [19]: 5.83 mL/min/kg
residual activity [20]: 105%
inhibition (NIH3T3): Dose-Dependent Effect
residual activity [21]: 100%
residual activity [22]: 122%
inhibition (K562): inactive
